Laboratory results published in patent US7105516B2, “Compounds for the treatment of premature ejaculation” (Bristol-Myers Squibb Company, priority 2002, dated 2006).
Where two headings read alike, the source gives them in different places.

Assays:
[1] = target: T1, human serotonin transporters (Homo sapiens, UniProt P31645); assay: Serotonin Transporter Binding Assay ([3H]-citalopram displacement, HEK-hSERT cell membranes); conditions: 1 nM [3H]-citalopram, 1 hr at 25° C.
T1 construct: expressed in transfected cells; membrane homogenates
T1 sequence (P31645 whole entry): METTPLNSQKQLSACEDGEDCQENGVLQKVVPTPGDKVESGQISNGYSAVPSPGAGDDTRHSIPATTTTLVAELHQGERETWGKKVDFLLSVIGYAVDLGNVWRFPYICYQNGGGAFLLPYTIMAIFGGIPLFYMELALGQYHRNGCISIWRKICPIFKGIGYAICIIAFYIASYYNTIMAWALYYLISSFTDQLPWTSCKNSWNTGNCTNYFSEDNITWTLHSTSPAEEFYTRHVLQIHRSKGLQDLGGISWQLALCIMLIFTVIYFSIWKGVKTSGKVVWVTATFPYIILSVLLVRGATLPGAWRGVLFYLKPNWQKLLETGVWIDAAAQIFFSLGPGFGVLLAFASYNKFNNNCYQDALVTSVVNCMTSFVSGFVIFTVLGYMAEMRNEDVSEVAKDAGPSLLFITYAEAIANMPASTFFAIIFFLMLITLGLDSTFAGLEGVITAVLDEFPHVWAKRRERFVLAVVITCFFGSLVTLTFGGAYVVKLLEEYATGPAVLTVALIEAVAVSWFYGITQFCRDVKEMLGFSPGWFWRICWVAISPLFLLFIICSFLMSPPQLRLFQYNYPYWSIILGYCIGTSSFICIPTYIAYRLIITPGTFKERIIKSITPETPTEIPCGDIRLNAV
Experimental: HEK-293 cells that stably express human serotonin transporters (HEK-hSERT cells) were grown at 37° C. in 5% CO2 as a monolayer in medium consisting of EMEM supplemented with 10% fetal bovine serum and G418 sulfate (500 μg/mL). […] Cells were transferred from plates to polypropylene tubes (16×100 mm), centrifuged at 1,200×g for 5 min and were frozen at −80° C. until assay. Following centrifugation, pellets were resuspended by homogenization in buffer consisting of 50 mM Tris (pH 7.7 at 25° C.), 120 mM NaCl and 5 mM KCl and then centrifuged at 32,000×g for 10 min. Following centrifugation, supernatants were discarded and pellets were resuspended in buffer consisting of 50 mM Tris (pH 7.4 at 25° C.), 150 mM NaCl and 5 mM KCl. Membrane homogenates (200 μl/plate) were incubated with 1 nM [^3H]-citalopram (specific activity=85 Ci/mMol) and increasing concentrations of test compounds for 1 hr at 25° C. in a total volume of 250 μl. The assay buffer consisted of 50 mM Tris (pH 7.4 at 25° C.), 120 mM NaCl and 5 mM KCl (pH 7.4 with conc. HCl). Plates were incubated for 1 hr at 25° C., then filtered through 0.5% PEI treated Whatman GF/B filters using a Brandel cell harvester. Filters were washed three times with 3 mL of ice-cold tris wash buffer. Non-specific binding was defined with 10 μM fluoxetine. Amount of radioligand bound in the presence and absence of competitor was analyzed by plotting (−)log drug concentration versus the amount of radioligand specifically bound. The midpoint of the displacement curve (IC50, nM), signifies the potency.

[2] = target: T2, human norepinephrine transporters (Homo sapiens, UniProt P23975); assay: Norepinephrine Transporter Binding Assay ([3H]-nisoxetine displacement, hNET cell membranes); conditions: 2.7 nM [3H]-nisoxetine, 1 hr at 4° C., read-out: NE reuptake binding Ki
T2 construct: the text also calls them 'HEK-hNET cells'); membrane homogenates
T2 sequence (P23975 whole entry): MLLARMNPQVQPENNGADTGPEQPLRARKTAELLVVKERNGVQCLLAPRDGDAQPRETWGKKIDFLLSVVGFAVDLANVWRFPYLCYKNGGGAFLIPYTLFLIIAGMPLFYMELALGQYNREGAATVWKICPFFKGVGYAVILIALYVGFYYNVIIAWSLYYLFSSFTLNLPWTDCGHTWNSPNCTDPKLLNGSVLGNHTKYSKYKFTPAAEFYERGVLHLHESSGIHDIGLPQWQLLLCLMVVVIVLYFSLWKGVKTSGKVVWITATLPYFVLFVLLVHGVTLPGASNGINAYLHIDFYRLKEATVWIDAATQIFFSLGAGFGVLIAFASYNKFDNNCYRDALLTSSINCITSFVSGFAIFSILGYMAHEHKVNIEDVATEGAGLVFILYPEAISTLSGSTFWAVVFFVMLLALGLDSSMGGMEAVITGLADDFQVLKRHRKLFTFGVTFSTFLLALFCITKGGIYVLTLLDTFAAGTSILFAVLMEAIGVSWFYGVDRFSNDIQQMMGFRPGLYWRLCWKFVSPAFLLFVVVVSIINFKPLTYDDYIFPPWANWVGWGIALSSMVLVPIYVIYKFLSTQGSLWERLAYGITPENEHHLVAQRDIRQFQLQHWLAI
Experimental: MDCK cells that stably express human norepinephrine transporters (HEK-hNET cells) were supplied by Receptor Biology, Inc. Pellets were resuspended by homogenization in buffer consisting of 50 mM Tris (pH 7.4 at 25° C.), 120 mM NaCl and 5 mM KCl. Membrane homogenates (200 μl/well, 8 ug protein) were incubated with 2.7 nM [^3H]-nisoxetine (specific activity=80 Ci/mMol) and increasing concentrations of test compounds for 1 hr at 4° C. in a total volume of 250 μl. The assay buffer consisted of 50 mM Tris (pH 7.4 at 25° C.), 120 mM NaCl and 5 mM KCl (pH 7.4 with conc. HCl). Plates were incubated for 1 hr at 4° C., then filtered through 0.5% PEI treated Whatman GF/B filters using a Brandel cell harvester. Filters were washed three times with 3 mL of ice-cold tris wash buffer. Non-specific binding was defined with 10 μM desipramine. Amount of radioligand bound in the presence and absence of competitor was analyzed by plotting (−)log drug concentration versus the amount of radioligand specifically bound. The midpoint of the displacement curve (IC50, nM), signifies the potency. Ki values were calculated using the method of Cheng and Prusoff (1973).

[3] = read-out: 5-HT reuptake binding Ki

Row | SMILES | Ki [1, 3] | Ki [2] | Ki ([1]; 5-HT reuptake binding Ki)
1 | CCNC1CCCC1Cc1c[nH]c2ccc(C#N)cc12 (centres unmarked) [Example 56, 3-(2-Ethylamino-cyclopentylmethyl)-1H-indole-5-carbonitrile] | 1 to 10 nM | – | –
2 | CCn1cc([C@H]2CCC[C@@H]2CN(C)C)c2cc(C#N)ccc21 (relative stereo) [Example 33, Trans-3-(2-dimethylaminomethyl-cyclopentyl)-1-ethyl-1H-indole-5-carbonitrile] | 1 to 10 nM | > 1000 nM | –
3 | CNC[C@@H]1CCC[C@@H]1c1ccc2[nH]cc(C#N)c2c1 (relative stereo) [Example 42, Cis-5-(methylaminomethyl-cyclopentyl)-1H-indole-3-carbonitrile] | 10 to 100 nM | 100 to 500 nM | –
4 | CCN(C)C[C@H]1CCC[C@@H]1c1c[nH]c2ccc(C#N)cc12 (relative stereo) [Example 29, Trans-3-{2-[(ethyl-methyl-amino)-methyl]-cyclopentyl}-1H-indole-5-carbonitrile] | – | > 1000 nM | 1 to 10 nM
5 | CCN(CC)C1CCCC1Cc1c[nH]c2ccc(C#N)cc12 (centres unmarked) [Example 57, 3-(2-Diethylamino-cyclopentylmethyl)-1H-indole-5-carbonitrile] | 10 to 100 nM | – | –
6 | CC([C@H]1CCCC1c1c[nH]c2ccc(C#N)cc12)N(C)C (single isomer, unassigned; diastereomer a) [Example 46, (+/−) trans-3-[2-(1-dimethylaminoethyl)cyclopentyl]-1H-indole-5-carbonitrile,diastereomer A] | – | > 1000 nM | < 1 nM
7 | CCN(C)C[C@H]1CCC[C@@H]1c1ccc2[nH]cc(C#N)c2c1 (relative stereo) [Example 38, Trans-5-{2-[(ethyl-methyl-amino)-methyl]-cyclopentyl}-1H-indole-3-carbonitrile] | 100 to 500 nM | > 1000 nM | –
8 | CN(C)C1CCCC1Cc1c[nH]c2ccc(C#N)cc12 (mixture of isomers) [Example 54, 3-(2-Dimethylamino-cyclopentylmethyl)-1H-indole-5-carbonitrile] | 1 to 10 nM | – | –
9 | CN(Cc1ccccc1)C[C@H]1CCC[C@@H]1c1c[nH]c2ccc(C#N)cc12 (relative stereo) [Example 31, Trans-3-{2-[(benzyl-methyl-amino)-methyl]-cyclopentyl}-1H-indole-5-carbonitrile] | 10 to 100 nM | > 1000 nM | –
10 | N#Cc1ccc2[nH]cc([C@H]3CCC[C@@H]3CN3CCCC3)c2c1 (relative stereo) [Example 30, Trans-3-(pyrrolidin-1-ylmethyl-cyclopentyl)-1H-indole-5-carbonitrile] | – | > 1000 nM | 1 to 10 nM
11 | CC([C@H]1CCCC1c1c[nH]c2ccc(C#N)cc12)N(C)C (single isomer, unassigned) [Example 48] | 10 to 100 nM | – | –
12 | CN(C)C[C@H]1CCC[C@@H]1c1ccc2[nH]cc(C#N)c2c1 (relative stereo) [Example 34, Trans-5-(2-dimethylaminomethyl-cyclopentyl)-1H-indole-3-carbonitrile] | 1 to 10 nM | > 1000 nM | –
13 | CN(C)C[C@H]1CCC[C@@H]1c1cn(C)c2ccc(C#N)cc12 (relative stereo) [Example 32, Trans-3-(2-dimethylaminomethyl-cyclopentyl)-1-methyl-1H-indole-5-carbonitrile] | – | > 1000 nM | 1 to 10 nM
14 | CN(Cc1ccccc1)C[C@H]1CCC[C@@H]1c1ccc2[nH]cc(C#N)c2c1 (relative stereo) [Example 40, Trans-5-{2-[(benzyl-methyl-amino)-methyl]-cyclopentyl}-1H-indole-3-carbonitrile] | 10 to 100 nM | > 1000 nM | –
15 | CN(C)C[C@H]1CCC[C@@H]1c1ccc2c(c1)c(C#N)cn2C (relative stereo) [Example 41, Trans-5-(2-dimethylaminomethyl-cyclopentyl)-1-methyl-1H-indole-3-carbonitrile] | 100 to 500 nM | > 1000 nM | –
16 | CC([C@H]1CCCC1c1c[nH]c2ccc(C#N)cc12)N(C)C (single isomer, unassigned; diastereomer b) [Example 47, (+/−) trans-3-[2-(1-dimethylaminoethyl)cyclopentyl]-1H-indole-5-carbonitrile,diastereomer B] | 1 to 10 nM | – | –

Row | SMILES | Ki [1, 3] | Ki [2] | Ki ([1]; 5-HT reuptake binding Ki)
17 | CCNC[C@H]1CCC[C@@H]1c1c[nH]c2ccc(C#N)cc12 (relative stereo) [Example 27, Trans-3-(2-ethylaminomethyl-cyclopentyl)-1H-indole-5-carbonitrile] | – | > 1000 nM | 10 to 100 nM
18 | CNC[C@H]1CCC[C@@H]1c1ccc2[nH]cc(C#N)c2c1 (relative stereo) [Example 35, Trans-5-(2-methylaminomethyl-cyclopentyl)-1H-indole-3-carbonitrile] | 1 to 10 nM | > 1000 nM | –
19 | CCN(C)C1CCCC1Cc1c[nH]c2ccc(C#N)cc12 (centres unmarked) [Example 58, 3-[2-(Ethyl-methyl-amino)-cyclopentylmethyl]-1H-indole-5-carbonitrile] | 1 to 10 nM | – | –
20 | N#Cc1ccc2[nH]cc(CC3CCCC3N3CCCC3)c2c1 (centres unmarked) [Example 59, 3-(2-Pyrrolidin-1-yl-cyclopentylmethyl)-1H-indole-5-carbonitrile] | 1 to 10 nM | – | –
21 | CN(C)C[C@H]1CCC[C@@H]1c1c[nH]c2ccc(I)cc12 [Example 52, (1S,2S)-[2-(5-iodo-1H-indol-3-yl)-cyclopentylmethyl]-dimethylamine] | 10 to 100 nM | – | –
22 | CCC([C@H]1CCC[C@@H]1c1c[nH]c2ccc(C#N)cc12)N(C)C (mixture of isomers) [Example 51, (+/−) trans-3-[2-(1-dimethylaminopropyl)cyclopentyl]-1H-indole-5-carbonitrile,diastereomer B] | 100 to 500 nM | – | –
23 | CCN(CC)C[C@H]1CCC[C@@H]1c1ccc2[nH]cc(C#N)c2c1 (relative stereo) [Example 39, Trans-5-(diethylaminomethyl-cyclopentyl)-1H-indole-3-carbonitrile] | 100 to 500 nM | > 1000 nM | –
24 | CCNC[C@H]1CCC[C@@H]1c1ccc2[nH]cc(C#N)c2c1 (relative stereo) [Example 37, Trans-5-(ethylaminomethyl-cyclopentyl)-1H-indole-3-carbonitrile] | 100 to 500 nM | > 1000 nM | –
25 | N#Cc1c[nH]c2ccc([C@H]3CCC[C@@H]3CN3CCCC3)cc12 (relative stereo) [Example 36, Trans-5-(2-pyrrolidin-1-ylmethyl-cyclopentyl)-1H-indole-3-carbonitrile] | 100 to 500 nM | > 1000 nM | –
26 | CN(Cc1ccccc1)C1CCCC1Cc1c[nH]c2ccc(C#N)cc12 (centres unmarked) [Example 60, 3-[2-(Benzyl-methyl-amino)-cyclopentylmethyl]-1H-indole-5-carbonitrile] | 10 to 100 nM | – | –
27 | CN(C)C[C@H]1CCC[C@@H]1c1c[nH]c2ccc(C#N)cc12 (single isomer, unassigned; enantiomerb) [Example 45] | – | > 1000 nM | < 1 nM
28 | CN(C)C[C@H]1CCC[C@@H]1c1c[nH]c2ccc(C#N)cc12 (racemic) [Example 25, Trans-3-(2-dimethylaminomethyl-cyclopentyl)-1H-indole-5-carbonitrile] | – | > 1000 nM | < 1 nM
29 | CC([C@H]1CCCC1c1c[nH]c2ccc(C#N)cc12)N(C)C (single isomer, unassigned) [Example 49] | < 1 nM | – | –
30 | CCC([C@H]1CCC[C@@H]1c1c[nH]c2ccc(C#N)cc12)N(C)C (mixture of isomers) [Example 50, (+/−) trans-3-[2-(1-dimethylaminopropyl)cyclopentyl]-1H-indole-5-carbonitrile,diastereomer A] | 10 to 100 nM | – | –
31 | CNC1CCCC1Cc1c[nH]c2ccc(C#N)cc12 (centres unmarked) [Example 55, 3-(2-Methylamino-cyclopentylmethyl)-1H-indole-5-carbonitrile] | 1 to 10 nM | – | –
32 | CN(C)C[C@@H]1CCC[C@@H]1c1ccc2[nH]cc(C#N)c2c1 (relative stereo) [Example 43, Cis-5-(dimethylaminomethyl-cyclopentyl)-1H-indole-3-carbonitrile] | 1 to 10 nM | – | –
